Experimental findings from patent US8133882B2, “Quinolone derivative or pharmaceutically acceptable salt thereof” (Astellas Pharma Inc, priority 2006, dated 2012) are described below.

One may read the inhibition as the drop in the measured response relative to a control, in per cent.

One assay addresses T1, Human P2Y12 (Homo sapiens, UniProt Q9H244).
T1 construct: expressed in transfected cells; membrane fraction used
Put plainly: Substitution test for the binding of human P2Y12 with 2-methylthio-ADP (2-MeS-ADP). Conditions: 30 nM final concentration of compound; P2Y12 expression C6-15 cell membrane fraction; 0.75 nM [3H]- or [33P]-2-MeS-ADP. The procedure:
Test Method (2) Substitution Test for the Binding of Human P2Y12 with 2-methylthio-ADP (2-MeS-ADP)
A C6-15 cell was inoculated into a 10 cm petri dish to a density of to 1×10^6 cells using DMEM medium and cultured for 1 day, and then 8 μg of a plasmid pEF-BOS-dfhr-human P2Y12 and 0.8 μg of pEF-BOS-neo (Nucleic Acid Res., 18, 5322, 1990) were gene-transferred using a transfection reagent (LipofectAMINE 2000; mfd. by GIBCO BRL).
24 hours after the aforementioned gene transfer operation, the gene-transferred cells were recovered, suspended in DMEM medium supplemented with 0.6 mg/ml of G 418 (mfd. by GIBCO BRL) and then serially diluted and inoculated again in a 10 cm petri dish. The colonies appeared after 2 weeks were individually obtained and used in the following test as P2Y12 protein expression C6-15 cells (WO 02/36631, Mol. Pharmacol., 60, 432, 2001).
After culturing the P2Y12 protein expression C6-15 cells, the cells were recovered. […]
A 100 μl portion of the P2Y12 protein expression C6-15 cell membrane fraction (100 μg/ml) obtained in the above was mixed with 1.5 μl of a test compound solution and 50 μl of 0.75 nM [^3H]-2-MeS-ADP (80 Ci/mmol, mfd. by Amersham Pharmacia Biotech) or 0.75 nM [^33P]-2-MeS-ADP (2100 Ci/mmol, mfd. by Perkin Elmer), incubated at room temperature for 1 hour in 50 mM Tris-HCl (pH 7.4) containing 100 mM NaCl and 50 mM MgCl2, and then recovered on a glass filter using a cell harvester. A microscintillator was added to the glass filter, and the radioactivity was measured using a liquid scintillation counter. Those to which the solvent alone was added and 1.5 μl of 250 μM ADP was added in the aforementioned test at the same time were regarded as total binding and nonspecific binding, and their radioactivity was measured. By regarding the total binding and nonspecific binding as inhibition ratio 0% and 100% respectively, inhibition ratio (%) of each compound to be tested was calculated.

Assay [1] relates to human platelet aggregation (ADP-induced, platelet rich plasma). Put plainly: Human platelet aggregation inhibition activity measuring test (ADP-induced, PRP). Type of assay: cell-based. Conditions: 10 μM final concentration of compound; human PRP 3×10^8 platelets/ml; ADP (50 μM, 10 μl) induced; area under platelet aggregation curve. The procedure:
Test Method (1) Human Platelet Aggregation Inhibition Activity Measuring Test
A blood sample was collected from a healthy volunteers (adult) using a syringe containing 1/10th volume of 3.8% sodium citrate solution and centrifuged at 160×g for 10 minutes, thereby separating platelet rich plasma (PRP) of the supernatant. Remaining blood after the collection of PRP was centrifuged at 1,800×g for 10 minutes to separate platelet poor plasma (PPP). The number of platelets in the PRP was measured by an automatic blood cell counter (MEK-6258, Nihon Kohden Corp.), and then the number of platelets was adjusted to 3×10^8/ml by adding PPP to PRP and used in the following test. The ADP as an inducer of platelet aggregation was purchased from MC Medical. Platelet aggregation was measured using an aggregometer (MCM Hematracer 212; MC Medical). That is, 80 μl of PRP of 3×10^8 platelets/ml and 10 μl of a test compound solution or a solvent (10% DMSO or 10% DMSO-9% hydroxypropyl-β-cyclodextrin-4.5% d-mannitol) were incubated at 37° C. for 1 minute, and then 10 μl of ADP (50 μM) was added thereto to induce platelet aggregation, and changes in transmitted light were recorded for 5 minutes. The inhibition ratio was calculated using the area under platelet aggregation curve as an index.
In this connection, REx represents reference example number, and Ex Example compound number. In addition, Reference Examples 1 and 2 are the Example compounds described in the aforementioned Patent Reference 7, and were produced in accordance with the method described in said patent reference.

Assay [2] deals with rat platelet aggregation (ADP-induced, PRP). The assay is described as follows: Rat platelet aggregation inhibition test (oral administration, ex vivo ADP-induced aggregation). Type of assay: in vivo. Conditions: dose 30 mg/kg oral, male SD rat, blood collected 2 hours after administration. The protocol: Test Method (3) Rat Platelet Aggregation Inhibition Test and Measurement of Test Compound Concentration in Plasma
By adding sodium hydroxide aqueous solution to the compound of the present invention, 0.5% methyl cellulose aqueous solution or suspension was prepared. The thus prepared liquid was orally administered using a sonde to a male SD rat (5 to 7 weeks of age) of after 12 hours or more of fasting. After 2 hours of the compound administration, blood was collected using a syringe containing 1/10th volume of 3.8% sodium citrate solution. In the same manner as in Test method (1), PPP and PRP of 3×10^8 platelets/ml were prepared. A 90 μl portion of the PRP of 3×10^8 platelets/ml was incubated at 37° C. for 1 minute, and then 10 μl of ADP (50 μM) was added thereto to induce platelet aggregation, and changes in transmitted light were recorded for 5 minutes. The inhibition ratio was calculated using the area under platelet aggregation curve as an index.

T1 sequence (Q9H244 whole entry): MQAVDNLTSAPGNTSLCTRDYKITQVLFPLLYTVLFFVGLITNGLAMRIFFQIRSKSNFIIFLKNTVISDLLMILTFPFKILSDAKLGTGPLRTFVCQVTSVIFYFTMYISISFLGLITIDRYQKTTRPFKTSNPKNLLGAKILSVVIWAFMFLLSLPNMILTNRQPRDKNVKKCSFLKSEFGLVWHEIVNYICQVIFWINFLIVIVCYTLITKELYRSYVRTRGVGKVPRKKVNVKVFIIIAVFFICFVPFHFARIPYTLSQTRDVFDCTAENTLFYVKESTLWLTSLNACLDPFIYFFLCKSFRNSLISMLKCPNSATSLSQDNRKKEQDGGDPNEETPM

As to `O=C(O)CCC(=O)Nc1cn(C2CCCC2)c2cc(NC3CCCCC3)c(F)cc2c1=O` [Ex 2, 4-{[7-(cyclohexylamino)-1-cyclopentyl-6-fluoro-4-oxo-1,4-dihydroquinolin-3-yl]amino}-4-oxobutanoic acid], the inhibition at 0.03 µM on Human P2Y12 is 89%. For the same compound, the inhibition at 10 µM in assay [1] came out at 93%.
As to `O=C(O)CCCNC(=O)c1cn(C2CCCC2)c2cc(NC3CCCCC3)c(F)cc2c1=O` [REx 1, 4-({[7-(cyclohexylamino)-1-cyclopentyl-6-fluoro-4-oxo-1,4-dihydroquinolin-3-yl]carbonyl}amino)butanoic Acid], the inhibition at 30 mg/kg in assay [2] was 11%. The inhibition at 0.03 µM at Human P2Y12 was found to be 76%. The inhibition at 10 µM in assay [1] came out at 64%.
Regarding `O=C(O)CNC(=O)c1cn(C2CCCC2)c2cc(NC3CCCCC3)c(F)cc2c1=O` [REx 2, ({[7-(cyclohexylamino)-1-cyclopentyl-6-fluoro-4-oxo-1,4-dihydroquinolin-3-yl]carbonyl}amino)acetic Acid], the inhibition at 30 mg/kg in assay [2] was -7%. In addition, the inhibition at 0.03 µM at Human P2Y12 worked out at 86%. Besides, in assay [1], the inhibition at 10 µM was found to be 79%.
